Among the data in patent US20040180880A1, “Piperazine and piperidine derivatives” (priority 2002, published 2004) are melting point and IC50 values, retold here.

Molecules are shown by their SMILES. Structures can show the parent of a compound that is named as a salt.

Data set [1] concerns rat embryo ventral mesencephalic (VM) cells. In words: Neuroprotection assay: NMDA injury of ventral mesencephalic cultures, read by high affinity 3H-dopamine uptake. Format: cell-based. Conditions: embryonic day 15 Sprague-Dawley rat VM cells, NMDA 100-400 μM for 20 hours, read-out: DAT (VM) IC50. An excerpt:
The neuroprotective activity of the compounds of this invention may be assayed using rat embryo ventral mesencephalic cells in culture which are subsequently exposed to the glutamate receptor agonist NMDA. This assay is described in detail in the example section.
The ventral mesencephalic region was dissected out of embryonic day 15 Sprague-Dawley rat embryos (Harlan), dissociated into single cell suspension by a combination of trypsinization and trituration (Costantini et al., Neurobiol Dis., pp. 97-106 (1998). Dissociated VM cells were plated into poly-L-ornithine-coated 96-well plates at a density of 85,000 cells/well in 100 uL of DMEM supplemented with 18% heat-inactivated horse serum, 0.24% glucose, 2 mM glutamine and 50 u/ml pernicillin/streptomycin and incubated in a 5% CO2 incubator. After one day in culture (DIV1), the medium was replaced with 100 μL of a defined medium (DMEM supplemented with 1×N2 cocktail (Gibco-BRL), 0.12% glucose, 2 mM glutamine, and […] penicillin/streptomycin) containing DMSO or various concentrations of the compounds of this invention. On DIV5, neuroexcitotoxic injury was induced by the addition of various concentrations of the glutamate receptor agonist NMDA (100-400 μM). Cultures were incubated with the neurotoxin for 20 hours and the effects of neurophilin compounds were assessed using high affinity ^3H-dopamine uptake according to a procedure published by Park and Mytilineou [Brain Res., 599, pp. 83-97 (1992)].

The term melting point denotes the temperature, or range, at which the solid turns liquid. In the case of `O=C(C1CCCCN1)N1CCN(C(c2ccc(F)cc2F)c2ccc(F)cc2F)CC1` (stereo not shown) (as salt: hydrochloride) [Compound 9, {4-[Bis-(2,4-difluoro-phenyl)-methyl]-piperazin-1-yl}-piperidin-2-yl-methanone], the melting point lay within 84 to 85 °C.
As usually defined, the IC50 is the concentration at which inhibition is half-maximal. For the compound `O=C(C1CCCCN1)N1CCN(C(c2ccc(F)cc2F)c2ccc(F)cc2F)CC1` (stereo not shown) [Compound 9, {4-[Bis-(2,4-difluoro-phenyl)-methyl]-piperazin-1-yl}-piperidin-2-yl-methanone], the IC50 in data set [1] was determined as 145 nM.
On the same count and under the same terms, under `O=C(C1CCCCN1)N1CCN(C(c2ccc(F)c(F)c2)c2ccc(F)c(F)c2)CC1` (stereo not shown) [Compound 17, (4-(Bis-(3,4-difluoro-phenyl)-methyl)piperazine-1-yl)-piperidin-2-yl-methanone] stands 6 nM.
Same read-out and setting: under `O=C(C1CCCCN1)N1CCN(C(c2ccc(F)cc2)c2ccc(F)cc2)CC1` (stereo not shown) [Compound 28, (4-(Bis-(4-fluoro-phenyl)-methyl)piperazine-1-yl)-piperidin-2-yl-methanone dihydrochloride] stands 12 nM.
